# Test results as given in patent US20200253877A1, “GEMCABENE, PHARMACEUTICALLY ACCEPTABLE SALTS THEREOF, COMPOSITIONS THEREOF AND METHODS OF USE THEREFOR” (NEUROBO PHARMACEUTICALS, INC., priority 2018, published 2020).
# How the values were obtained:
# [1] = test system: hepatic mRNA expression in STAM™ mice; assay: Murine STAM model of NASH-HCC: hepatic gene expression by quantitative RT-PCR; assay type: in vivo, mouse
# Experimental: A study was performed to evaluate the efficacy of gemcabene calcium salt hydrate Crystal Form 1 having a PSD90 of 52 μm as measured by laser light diffraction, in treating non-alcoholic steatosis hepatitis (NASH) in the murine STAM™ model of NASH-HCC.
# Briefly, two-day old neonatal C57BL/6 male mice were administered low-dose streptozotocin (STZ), and were subsequently fed a HFC diet from 4 weeks of age. In this model, the mice typically develop liver steatosis and diabetes, reaching steatohepatitis within 3 weeks, followed by cirrhosis within 8 weeks, and carcinoma within 16 weeks. In the current study, mice were administered daily oral gemcabene calcium salt hydrate Crystal Form 1 starting at week 6 of age and were sacrificed at week 9. […] These STAM™ groups were orally administered from week 6 one of the following: water-vehicle, gemcabene calcium salt hydrate Crystal Form 1 at 30, 100 and 300 mg/kg daily, or telmisartan ([…]®) 10 mg/kg daily. […] All groups were sacrificed at week 9. Vehicle, gemcabene calcium salt hydrate Crystal Form 1, or telmisartan were administered by oral gavage once daily.
# Various gene expression markers of liver metabolism were evaluated by Real-Time PCR (RT-PCR) in all mouse groups. Total RNA was extracted from liver samples using RNAiso (Takara Bio, Japan) according to the manufacturer's instructions. […] of RNA was reverse-transcribed using a reaction mixture containing 4.4 mM MgCl2 (F. Hoffmann-La Roche, Switzerland), 40 U RNase inhibitor (Toyobo, Japan), 0.5 mM dNTP (Promega, USA), 6.28 μM random hexamer (Promega), 5×first strand buffer (Promega), 10 mM dithiothreitol (Invitrogen, USA) and 200 U MMLV-RT (Invitrogen) in a final volume of 20 μL. The reaction was carried out for 1 hour at 37° C., followed by 5 minutes at 99° C. Real-time PCR was performed using real-time PCR DICE and SYBR premix Taq (Takara Bio). To calculate the relative mRNA expression level, the expression of each gene was normalized to that of reference gene 36B4 (gene symbol: RplpO). Information of PCR-primer sets is described in Tables 37A-37C. Statistical analyses were performed using the Bonferroni Multiple Comparison Test on GraphPad Prism 6 (GraphPad Software Inc., USA). P values <0.05 were considered statistically significant. Results are expressed as mean±SD.
# In order to calculate the relative mRNA expression level, the expression of each gene was normalized to that of the reference gene 36B4 (gene symbol: RplpO). The gene expression levels were measured by quantitative RT-PCR. Results were normalized with values for the vehicle-treated normal group. […] Gemcabene calcium salt hydrate Crystal Form 1 (PSD90=52 μm) modulated the mRNA expression of many hepatic genes that play a significant role in the liver homeostasis and injury.
# [2] = test system: STAM™ mice, a murine model of NASH-HCC; assay: Murine STAM model of NASH-HCC: whole blood, plasma and liver biochemistry
# [3] = 10 mg/kg, n = 7, STAM mice, normalized to non-treated group
# [4] = gemcabene Form 1 100 mg/kg, telmisartan 10 mg/kg
# [5] = vs Vehicle in NASH group, gemcabene Form 1 100 and 300 mg/kg, telmisartan 10 mg/kg
# [6] = 10 mg/kg PO QD, Day 18 after 8 hours of fasting, mean ± SD, n = 8
# [7] = 10 mg/kg PO QD, at termination (Day 21), mean ± SD, n = 7
compound,measurement,setting,value
"CCCc1nc2c(C)cc(-c3nc4ccccc4n3C)cc2n1Cc1ccc(-c2ccccc2C(=O)O)cc1 [telmisartan, reference compound]",ACC1 gene expression (mean ± SD),[1]; [3],0.7 ± 0.1
same,ACC2 gene expression (mean ± SD),[1]; [3],0.3 ± 0.1
same,ADH-4 gene expression (mean ± SD),[1]; [3],0.6 ± 0.2
same,ANGPTL3 gene expression (mean ± SD),[1]; [3],0.7 ± 0.2
same,ANGPTL4 gene expression (mean ± SD),[1]; [3],2.1 ± 0.3
same,ANGPTL8 gene expression (mean ± SD),[1]; [3],0.3 ± 0.1
same,ApoC-III gene expression (mean ± SD),[1]; [3],0.8 ± 0.2
same,CCR2 gene expression (mean ± SD),[1]; [3],2.4 ± 0.8
same,CCR5 gene expression (mean ± SD),[1]; [3],1.5 ± 0.3
same,CRP gene expression (mean ± SD),[1]; [3],0.9 ± 0.1
same,CXCL1/KC gene expression (mean ± SD),[1]; [3],0.6 ± 0.3
same,Fetuin-A gene expression (mean ± SD),[1]; [3],1.0 ± 0.1
same,IL-1β gene expression (mean ± SD),[1]; [3],0.7 ± 0.2
same,IL-6 gene expression (mean ± SD),[1]; [3],0.8 ± 0.4
same,LDL receptor gene expression (mean ± SD),[1]; [3],0.7 ± 0.3
same,LPL gene expression (mean ± SD),[1]; [3],2.4 ± 0.5
same,MCP-1 gene expression (mean ± SD),[1]; [3],2.1 ± 1.0
same,MIP-1β gene expression (mean ± SD),[1]; [3],3.9 ± 1.5
same,MMP-2 gene expression (mean ± SD),[1]; [3],1.4 ± 0.7
same,NF-κB gene expression (mean ± SD),[1]; [3],1.1 ± 0.1
same,PNPLA3 gene expression (mean ± SD),[1]; [3],0.1 ± 0.0
same,SCD1 gene expression (mean ± SD),[1]; [3],0.1 ± 0.0
same,SREBP-1 gene expression (mean ± SD),[1]; [3],0.7 ± 0.2
same,Sulf-2 gene expression (mean ± SD),[1]; [3],3.9 ± 0.9
same,TIMP-1 gene expression (mean ± SD),[1]; [3],8.6 ± 5.1
same,TNF-α gene expression (mean ± SD),[1]; [3],3.0 ± 1.2
same,α-SMA gene expression (mean ± SD),[1]; [3],2.3 ± 0.7
same,LDL receptor gene expression,[1]; STAM mice,no effect
same,"ACC-1 mRNA expression (relative, mean±SD)",[1]; [4],0.7±0.1
same,"ADH-4 mRNA expression (relative, mean±SD)",[1]; [4],0.6±0.2
same,"CCR2 mRNA expression (relative, mean±SD)",[1]; [4],2.4±0.8
same,"CCR5 mRNA expression (relative, mean±SD)",[1]; [4],1.5±0.3
same,"CRP mRNA levels (relative, mean±SD)",[1]; [4],No significant differences
same,"MCP-1 mRNA expression (relative, mean±SD)",[1]; [4],2.1±1.0
same,"MIP-1β mRNA levels (relative, mean±SD)",[1]; [4],3.9±1.5
same,hepatic LPL mRNA expression levels,"[1]; vs Vehicle in NASH group, gemcabene Form 1 30, 100 and 300 mg/kg, telmisartan 10 mg/kg",no significant difference
same,ANGPTL4 mRNA expression levels,[1]; [5],significant down-regulations
same,IL-6 mRNA expression level,[1]; [5],significant down-regulations
same,Fasting blood glucose,[2]; [6],742 ± 90 mg/dL
same,Plasma insulin,[2]; [6],0.16 ± 0.04 ng/mL
same,Liver free fatty acid,[2]; [7],46.8 ± 10.7 pEq/g liver
same,Liver hydroxyproline,[2]; [7],0.91 ± 0.12 μg/mg total protein
same,Liver triglyceride,[2]; [7],31.7 ± 6.4 mg/g liver
same,Non-fasting blood glucose,[2]; [7],856 ± 62 mg/dL
same,Plasma ApoC-III,[2]; [7],6.2 ± 0.7 gg/mL
same,Plasma CRP,[2]; [7],3.0 ± 0.4 gg/mL
same,Plasma adiponectin,[2]; [7],6.8 ± 0.9 gg/mL
same,Plasma alanine aminotransferase,[2]; [7],39 ± 15 U/L
same,Plasma alkaline phosphatase,[2]; [7],567 ± 104 U/L
same,Plasma aspartate aminotransferase,[2]; [7],121 ± 38 U/L
same,Plasma blood urea nitrogen,[2]; [7],85.0 ± 17.4 mg/dL
same,Plasma creatinine,[2]; [7],0.1 ± 0.0 mg/dL
same,Plasma gamma-glutamyl transferase,[2]; [7],1 ± 0 U/L
same,Plasma ketone body,[2]; [7],8.11 ± 3.27 m M
same,Plasma leptin,[2]; [7],2.9 ± 1.1 ng/mL
same,Plasma total bilirubin,[2]; [7],0.3 ± 0.1 mg/dL
same,Plasma total cholesterol,[2]; [7],208 ± 19 mg/dL
same,Plasma triglyceride,[2]; [7],569 ± 256 mg/dL
same,fasting whole blood glucose concentrations,"[2]; 3 days prior to termination, 8 h fasting, vs vehicle-treated STAM mice, gemcabene Form 1 30, 100, 300 mg/kg, telmisartan 10 mg/kg, oral daily wk 6-9",significant increase
same,plasma ALP levels,"[2]; at termination, vs vehicle-treated NASH group, gemcabene Form 1 100 and 300 mg/kg, telmisartan 10 mg/kg",significant increases
same,whole blood glucose levels,"[2]; at termination, vs vehicle-treated STAM mice, gemcabene Form 1 30, 100, 300 mg/kg, telmisartan 10 mg/kg",significant increase
same,plasma BUN levels,"[2]; at termination, vs vehicle-treated STAM mice, telmisartan 10 mg/kg",significant increase
same,plasma triglyceride concentrations,"[2]; vs vehicle-treated STAM mice, gemcabene Form 1 30, 100, 300 mg/kg (dose-dependent manner), telmisartan 10 mg/kg",no significant difference
same,liver triglyceride content,"[2]; vs vehicle-treated STAM mice, gemcabene Form 1 30, 100, 300 mg/kg, telmisartan 10 mg/kg",significant decrease
same,plasma total cholesterol concentrations,"[2]; vs vehicle-treated STAM mice, gemcabene Form 1 100 and 300 mg/kg, telmisartan 10 mg/kg",significant increases
